A value given as a limit tells only on which side of the number the result lay.

In experiment [1] the target is α-glucosidase. The arrangement: method as in PMID 31838286. Particulars: assay of template compounds B, Fig. 1 and Fig. 5; cited from earlier work.
Experiment [2] has as its target T1, α-glucosidase (Saccharomyces cerevisiae, UniProt P53341).
T1 construct: the yeast form of α-glucosidase, which was extracted from Saccharomyces cerevisiae; purchased Sigma-Aldrich; host or cells: Saccharomyces cerevisiae (extracted)
As to the kind of experiment: Kinetic study (Lineweaver–Burk method). The experiment is classed as biochemical. The settings on record: Lineweaver–Burk plots. On the procedure: Then, p-nitrophenyl-α-D-glucopyranoside at various concentrations (1–4 mM) was added to initiate the enzymatic reaction.
The type of inhibition mode was indicated by Lineweaver–Burk plots.

In experiment [3] the target is T1, α-glucosidase. Kind of experiment: Anti-α-glucosidase assay (p-nitrophenyl-α-D-glucopyranoside substrate, absorbance 405 nm). The experiment is classed as biochemical. The settings on record: for Inhibation: IC50 determination curve. On the procedure: After this time, the p-nitrophenyl-α-D-glucopyranoside (25 μL, 4 mM) was added to the latter plate and allowed to incubate at 37 °C for 20 min. […] The percentage of inhibition (% inhibition) for each sample was calculated using the formula “[(Abs control − Abs sample)/Abs control] × 100”, and IC50 values were obtained from non-linear regression curve using the Logit method.[24]

T1 sequence (P53341 whole entry): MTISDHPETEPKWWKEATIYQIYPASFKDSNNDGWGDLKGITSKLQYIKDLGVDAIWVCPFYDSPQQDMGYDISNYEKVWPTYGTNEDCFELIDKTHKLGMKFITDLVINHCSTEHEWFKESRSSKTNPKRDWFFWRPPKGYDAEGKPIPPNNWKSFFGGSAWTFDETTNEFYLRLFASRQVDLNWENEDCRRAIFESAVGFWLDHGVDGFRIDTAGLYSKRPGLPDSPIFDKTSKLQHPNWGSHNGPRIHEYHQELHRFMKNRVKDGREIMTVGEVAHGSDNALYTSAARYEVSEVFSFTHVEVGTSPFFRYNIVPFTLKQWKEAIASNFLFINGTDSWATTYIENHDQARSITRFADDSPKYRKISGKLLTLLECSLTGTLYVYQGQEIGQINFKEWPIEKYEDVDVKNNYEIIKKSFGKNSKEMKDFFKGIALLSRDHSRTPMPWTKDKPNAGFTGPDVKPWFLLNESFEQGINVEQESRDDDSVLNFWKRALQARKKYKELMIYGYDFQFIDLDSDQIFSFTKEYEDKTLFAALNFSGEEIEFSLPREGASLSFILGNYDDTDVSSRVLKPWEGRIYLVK

The IC50 is the concentration that inhibits the measured activity by half. With `O=C(Cn1cc(COc2ccc(-c3nc4ccccc4[nH]3)cc2)nn1)Nc1ccccc1` [B (R = H, n = 0)], at α-glucosidase [1], the IC50 is 51.5 µM.

As for `O=C(Cn1cc(COc2ccc(-c3nc4ccccc4[nH]3)cc2)nn1)NCc1ccccc1` [B (R = H, n = 1)], the IC50 at α-glucosidase [1] was 121 µM.

The inhibition is the share of the control response that was lost under treatment. With `O=C(Cn1cc(COc2ccc(/C=N/Nc3nnc(-c4ccccc4)c(-c4ccccc4)n3)cc2)nn1)Nc1ccc(Cl)cc1` [Compound 13j, (E)-N-(4-Chlorophenyl)-2-(4-((4-((2-(5,6-diphenyl-1,2,4-triazin-3-yl)hydrazineylidene)methyl)phenoxy)methyl)-1H-1,2,3-triazol-1-yl)acetamide], at α-glucosidase [2], the “effect of increasing inhibitor concentration on Vmax and Km” value was “decrease in both Vmax and Km values”. For the same molecule, at α-glucosidase [2], the “type of inhibition mode” value is listed as “uncompetitive α-glucosidase inhibitor”. In addition, the Inhibation is reported as 73.02 on α-glucosidase [3] (Conc. 15 (unit not given)), 75.43 at α-glucosidase [3] (Conc. 30 (unit not given)), 79 on α-glucosidase [3] (Conc. 60 (unit not given)) and 81 at α-glucosidase [3] (Conc. 90 (unit not given)). Further, the IC50 at α-glucosidase [3] (IC50 (from IC50 determination curves, supplement), logarithmic fit of inhibition vs Conc., unit inferred) is under 15 µM; on α-glucosidase [3] (IC50, yeast α-glucosidase, mean ± SD, at least three experiments), 0.12 ± 0.02 µM. The inhibition at 750 µM at α-glucosidase [3] (read-out: In (%), inhibition percentage against α-glucosidase) worked out at 83%.

(Values after publication PMC12523282, “New 5,6-diphenyl-1,2,4-triazine-hydrazineylidene-phenoxy-1,2,3-triazole-acetamide derivatives as potent synthetic α-glucosidase inhibitors” (RSC Advances, 2025).)
